The results in this text go back to US20060264460A1 (Wyeth, priority 2005, published 2006).

Some results are limits rather than exact numbers.

The target in the assay is T1, human Cot/Tpl2 kinase (Homo sapiens, UniProt P41279).
T1 construct: human Cot/Tpl2 kinase construct encoding residues 30-398; 6His (N); made in house; host or cells: Sf9 insect cells, baculovirus system (BD Biosciences)
T1 sequence (P41279 30-398): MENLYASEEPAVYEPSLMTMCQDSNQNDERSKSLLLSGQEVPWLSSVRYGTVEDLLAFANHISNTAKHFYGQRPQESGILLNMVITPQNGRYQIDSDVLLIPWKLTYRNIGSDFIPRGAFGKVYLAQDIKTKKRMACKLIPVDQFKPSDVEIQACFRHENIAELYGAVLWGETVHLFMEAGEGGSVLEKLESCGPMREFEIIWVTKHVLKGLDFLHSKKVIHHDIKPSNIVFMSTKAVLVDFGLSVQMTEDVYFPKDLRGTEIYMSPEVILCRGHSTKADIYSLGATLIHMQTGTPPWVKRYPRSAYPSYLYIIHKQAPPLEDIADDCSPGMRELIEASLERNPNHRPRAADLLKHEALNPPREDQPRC
Nature of the assay: Tpl2/Cot kinase assay: GST-MEK1 phosphorylation detected by ELISA (DELFIA Eu). It is filed as biochemical. To be noted: 0.4 nM Tpl2, 35 nM GST-MEK1, 50 uM ATP, 1 h at 30° C. In outline: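 Substrate phosphorylation (GST-MEK1 Ser217/221) quantified by DELFIA europium ELISA, yielding IC50 values. Reaction: 1 h at 30° C, pH 7.2 MOPS buffer, 50 uM ATP, 35 nM GST-MEK1, 0.4 nM monomeric His-Tpl2 purified from Sf9 cells, compounds at 1% final DMSO; stopped with EDTA.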
In general terms: ELISA stands for enzyme-linked immunosorbent assay.
For orientation: IC50 means the midpoint of a concentration-inhibition curve. As for `CN(C)C(=O)c1cc(NCc2cccnc2)cc2c(Nc3ccc(F)c(Cl)c3)c(C#N)cnc12` [Example 94, 4-(3-chloro-4-fluorophenylamino)-3-cyano-N,N-dimethyl-6-(pyridin-3-ylmethylamino)quinoline-8-carboxamide], 0.53 µM corresponded to half-maximal inhibition (IC50).
Next, `N#Cc1cnc2c(Br)cc(NCc3cnc[nH]3)cc2c1NC1CCCC1` [Example 96, 6-((1H-imidazol-5-yl)methylamino)-8-bromo-4-(cyclopentylamino)quinoline-3-carbonitrile]: 0.44 µM.
For the molecule `N#Cc1cnc2c(Br)cc(NCc3cnc[nH]3)cc2c1NC1CCCCCC1` [Example 97, 6-((1H-imidazol-5-yl)methylamino)-8-bromo-4-(cycloheptylamino)quinoline-3-carbonitrile], inhibition was half-maximal at 0.23 µM (IC50).
For the molecule `CC(C)(C)Nc1c(C#N)cnc2c(Br)cc(NCc3cnc[nH]3)cc12` [Example 98, 6-((1H-imidazol-5-yl)methylamino)-8-bromo-4-(tert-butylamino)quinoline-3-carbonitrile], the IC50 was found to be 1.5 µM.
The molecule `N#Cc1cnc2ccc(NCc3cccnc3)cc2c1Nc1ccc(C(N)=O)cc1` [Example 99, 4-(3-cyano-6-(pyridin-3-ylmethylamino)quinolin-4-ylamino)benzamide] displayed an IC50 of 24.1 µM. This IC50 lies about 16-fold higher than the previous one.
In the case of `N#Cc1cnc2c(-c3ccsc3)cc(NCc3cccnc3)cc2c1Nc1cccc(Cl)c1` [Example 100, 4-(3-chlorophenylamino)-6-(pyridin-3-ylmethylamino)-8-(thiophen-3-yl)quinoline-3-carbonitrile] it was over 40 µM; in that of `N#Cc1cnc2c(Br)cc(NCc3cccc[n+]3[O-])cc2c1Nc1ccc(F)c(Cl)c1` [Example 101, 8-bromo-4-(3-chloro-4-fluorophenylamino)-6-(1-oxypyridin-2-ylmethylamino)quinoline-3-carbonitrile], 0.0041 µM.
`N#Cc1cnc2c(-c3ccoc3)cc(NCc3cccnc3)cc2c1Nc1ccc(F)c(Cl)c1` [Example 102, 4-(3-chloro-4-fluorophenylamino)-8-(furan-3-yl)-6-(pyridin-3-ylmethylamino)quinoline-3-carbonitrile]: the concentration for half-maximal inhibition (IC50) was 1.3 µM.
In the case of `CN(C)C(=O)CNc1ccc2ncc(C#N)c(Nc3ccc(F)c(Cl)c3)c2c1` [Example 103, 2-(4-(3-chloro-4-fluorophenylamino)-3-cyanoquinolin-6-ylamino)-N,N-dimethylacetamide] it was 0.51 µM; in that of `CC(C)(C)Nc1c(C#N)cnc2c(Br)cc(NCc3cccc[n+]3[O-])cc12` [Example 104, 8-bromo-4-(tert-butylamino)-6-(1-oxypyridin-2-ylmethylamino)quinoline-3-carbonitrile], 1.5 µM.
`Cc1ncc(CNc2cc(Br)c3ncc(C#N)c(Nc4ccc(F)c(Cl)c4)c3c2)[nH]1` [Example 105, 8-bromo-4-(3-chloro-4-fluorophenylamino)-6-((2-methyl-1H-imidazol-5-yl)methylamino)quinoline-3-carbonitrile] showed an IC50 of 0.17 µM.
In the case of `N#Cc1cnc2c(Br)cc(NCc3cnc(-c4ccccc4)[nH]3)cc2c1Nc1ccc(F)c(Cl)c1` [Example 106, 8-bromo-4-(3-chloro-4-fluorophenylamino)-6-((2-phenyl-1H-imidazol-5-yl)methylamino)quinoline-3-carbonitrile] it was 5.9 µM; in that of `CCCCc1ncc(CNc2cc(Br)c3ncc(C#N)c(Nc4ccc(F)c(Cl)c4)c3c2)[nH]1` [Example 107, 8-bromo-6-((2-butyl-1H-imidazol-5-yl)methylamino)-4-(3-chloro-4-fluorophenylamino)quinoline-3-carbonitrile], 0.9 µM; in that of `CNC(=O)CNc1ccc2ncc(C#N)c(Nc3ccc(F)c(Cl)c3)c2c1` [Example 108, 2-(4-(3-chloro-4-fluorophenylamino)-3-cyanoquinolin-6-ylamino)-N-methylacetamide], 0.55 µM.
`C/C=C/c1cc(NCc2cccnc2)cc2c(Nc3ccc(F)c(Cl)c3)c(C#N)cnc12` [Example 109, (E)-4-(3-chloro-4-fluorophenylamino)-8-(prop-1-enyl)-6-(pyridin-3-ylmethylamino)quinoline-3-carbonitrile] yielded an IC50 of 2.2 µM. This IC50 is about 4-fold higher than that of the molecule before.
`COC(=O)c1nc[nH]c1CNc1cc(Br)c2ncc(C#N)c(Nc3ccc(F)c(Cl)c3)c2c1` [Example 110, Methyl 5-((8-bromo-4-(3-chloro-4-fluorophenylamino)-3-cyanoquinolin-6-ylamino)methyl)-1H-imidazole-4-carboxylate] gave a concentration for half-maximal inhibition (IC50) of 0.087 µM.
Turning to `N#Cc1cnc2c(Br)cc(NCc3[nH]cnc3-c3ccccc3)cc2c1Nc1ccc(F)c(Cl)c1` [Example 111, 8-bromo-4-(3-chloro-4-fluorophenylamino)-6-((4-phenyl-1H-imidazol-5-yl)methylamino)quinoline-3-carbonitrile], the IC50 is 0.033 µM.
In the case of `CCc1nc[nH]c1CNc1cc(Br)c2ncc(C#N)c(Nc3ccc(F)c(Cl)c3)c2c1` [Example 112, 8-bromo-4-(3-chloro-4-fluorophenylamino)-6-((4-ethyl-1H-imidazol-5-yl)methylamino)quinoline-3-carbonitrile] it was 0.0035 µM; in that of `Cc1c(CNc2cc(Br)c3ncc(C#N)c(Nc4ccc(F)c(Cl)c4)c3c2)ncn1C` [Example 113, 8-bromo-4-(3-chloro-4-fluorophenylamino)-6-((1,5-dimethyl-1H-imidazol-4-yl)methylamino)quinoline-3-carbonitrile], 0.01 µM.
The molecule `N#Cc1cnc2c(Br)cc(NCc3[nH]cnc3C(F)(F)F)cc2c1Nc1ccc(F)c(Cl)c1` [Example 114, 8-bromo-4-(3-chloro-4-fluorophenylamino)-6-((4-(trifluoromethyl)-1H-imidazol-5-yl)methylamino)quinoline-3-carbonitrile] displayed an IC50 of 0.31 µM.
Consider `CC(C)c1nc[nH]c1CNc1cc(Br)c2ncc(C#N)c(Nc3ccc(F)c(Cl)c3)c2c1` [Example 115, 8-bromo-4-(3-chloro-4-fluorophenylamino)-6-((4-isopropyl-1H-imidazol-5-yl)methylamino)quinoline-3-carbonitrile], for which the IC50 worked out at 0.13 µM.
Next, `N#Cc1cnc2c(Br)cc(NC(=O)Cc3cnc[nH]3)cc2c1Nc1ccc(F)c(Cl)c1` [Example 117, N-(8-bromo-4-(3-chloro-4-fluorophenylamino)-3-cyanoquinolin-6-yl)-2-(1H-imidazol-5-yl)acetamide]: over 40 µM; `N#Cc1cnc2c(Br)cc(NCc3nn[nH]c3-c3ccccc3F)cc2c1Nc1ccc(F)c(Cl)c1` [Example 118, 8-bromo-4-[(3-chloro-4-fluorophenyl)amino]-6-({[5-(2-fluorophenyl)-1H-1,2,3-triazol-4-yl]methyl}amino)quinoline-3-carbonitrile]: 0.11 µM; `N#Cc1cnc2c(Br)cc(NCc3nn[nH]c3-c3cccc(F)c3)cc2c1Nc1ccc(F)c(Cl)c1` [Example 119, 8-bromo-4-[(3-chloro-4-fluorophenyl)amino]-6-({[5-(3-fluorophenyl)-1H-1,2,3-triazol-4-yl]methyl}amino)quinoline-3-carbonitrile]: 0.35 µM.
In the case of `N#Cc1cnc2ccc(NCc3ccc(S(=O)(=O)N4CCOCC4)cc3)cc2c1Nc1ccc(F)c(Cl)c1` [Example 120, 6-(4-(morpholinosulfonyl)benzylamino)-4-(3-chloro-4-fluorophenylamino)quinoline-3-carbonitrile], half-maximal inhibition (IC50) was put at 0.024 µM.
In the case of `N#Cc1cnc2ccc(NCc3ccc(S(N)(=O)=O)cc3)cc2c1Nc1ccc(F)c(Cl)c1` [Example 121, 4-((4-(3-chloro-4-fluorophenylamino)-3-cyanoquinolin-6-ylamino)methyl)benzenesulfonamide] it was 0.114 µM.
In the case of `CN1CCN(S(=O)(=O)c2ccc(CNc3ccc4ncc(C#N)c(Nc5ccc(F)c(Cl)c5)c4c3)cc2)CC1` [Example 122, 6-(4-(4-methylpiperazin-1-ylsulfonyl)benzylamino)-4-(3-chloro-4-fluorophenylamino)quinoline-3-carbonitrile] it was 0.58 µM; in that of `CN(C)CCNS(=O)(=O)c1ccc(CNc2ccc3ncc(C#N)c(Nc4ccc(F)c(Cl)c4)c3c2)cc1` [Example 123, 4-((4-(3-chloro-4-fluorophenylamino)-3-cyanoquinolin-6-ylamino)methyl)-N-(2-(dimethylamino)ethyl)benzenesulfonamide], 0.54 µM; in that of `CN(C)Cc1cc(NCc2cccnc2)cc2c(Nc3cccc(Br)c3)c(C#N)cnc12` [Example 124, 4-(3-bromophenylamino)-8-((dimethylamino)methyl)-6-(pyridin-3-ylmethylamino)quinoline-3-carbonitrile], over 10 µM.
`Cc1cc(N)cc2c(Nc3cccc(Br)c3)c(C#N)cnc12` [Example 125, 6-amino-4-(3-bromophenylamino)-8-methylquinoline-3-carbonitrile] showed an IC50 of 11 µM. In other words, the double-digit micromolar range.
In the case of `Cc1cc(NCc2cccnc2)cc2c(Nc3cccc(Br)c3)c(C#N)cnc12` [Example 126, 4-(3-bromophenylamino)-8-methyl-6-(pyridin-3-ylmethylamino)quinoline-3-carbonitrile] it was 3.3 µM; in that of `CC(Nc1ccc2ncc(C#N)c(Nc3ccc(F)c(Cl)c3)c2c1)c1ccccn1` (stereo not drawn) [Example 127, 4-(3-chloro-4-fluorophenylamino)-6-(1-(pyridin-2-yl)ethylamino)quinoline-3-carbonitrile], 0.064 µM; in that of `Cc1c(CNc2ccc3ncc(C#N)c(Nc4ccc(F)c(Cl)c4)c3c2)ncn1C` [Example 128, 4-(3-chloro-4-fluorophenylamino)-6-((1,5-dimethyl-1H-imidazol-4-yl)methylamino)quinoline-3-carbonitrile], 0.0032 µM.
